The source made the active and inactive calls.
What was measured:
[1] = target: T1, Probable nicotinate-nucleotide adenylyltransferase (Staphylococcus aureus (strain N315), UniProt P65502); assay type: functional, Staphylococcus aureus subsp. aureus N315;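 as to IC50 Mean: confirmatory dose-response retesting of NadD inhibitor hits first found in an ultra-high-throughput screen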
[2] = target: T1, Probable nicotinate-nucleotide adenylyltransferase; assay type: functional, Staphylococcus aureus subsp. aureus N315; settings: read-out: IC50_Mean
[3] = viability of HCT116 lacking mutant beta-catenin – cell-based, human colon tumor, dose response (AID 1045); assay type: functional;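 also: HCT116 colon tumor cells with beta catenin knocked out; cells exposed to compound for 60 hours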
[4] = viability of PTEN-deleted HCT116 cells – cell-based, HCT116 PTEN knockout, dose response (AID 1047); assay type: functional;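 also: HCT116 colon tumor cells with PTEN knocked out; cells exposed to compound for 60 hours before readout; potency for loss of cell viability measured by luminescence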
Caspase-3 = target: T2, Caspase-3 (Homo sapiens, UniProt P42574); assay: activation of caspase-3 zymogen – biochemical, absorbance, dose response (AID 489014)
T2 sequence (P42574 whole entry): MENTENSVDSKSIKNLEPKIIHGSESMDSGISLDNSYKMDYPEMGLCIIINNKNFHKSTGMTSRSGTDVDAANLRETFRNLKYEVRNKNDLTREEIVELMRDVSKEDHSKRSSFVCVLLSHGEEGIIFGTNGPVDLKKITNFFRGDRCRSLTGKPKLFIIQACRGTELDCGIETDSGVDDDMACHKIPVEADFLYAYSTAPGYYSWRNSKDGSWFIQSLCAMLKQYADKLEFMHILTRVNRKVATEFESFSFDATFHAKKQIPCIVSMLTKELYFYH

Caspase-7 = Caspase-7 (Homo sapiens, UniProt P55210); assay: activation of caspase-7 zymogen – biochemical, absorbance, counter-screen for procaspase-3 activator project, dose response (AID 489013)
[5] = viability of uninfected HEp-2 cells – cell-based, HTS, cytotoxicity control for RSV inhibitor project, dose response (AID 2410); assay type: functional; settings: human respiratory syncytial virus
INS1 = assay: INS-1E survival protection against cytokine death – cell-based, luminescence, retest, dose response (AID 449756); assay type: functional; settings: Rattus norvegicus;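 also: cell death triggered by IL-1 beta plus TNF-alpha plus IFN-gamma mixture; protective hits raise ATP signal compared with cytokine alone wells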
Protein RecA = target: T3, Protein RecA (Mycobacterium tuberculosis, UniProt P9WHJ3); assay: Fluorescence Cell-Free Homogeneous Dose Retest to Identify Inhibitors of RecA-Intein Splicing Activity. [Related pubchem assays (depositor defined):AID2097, AID2223, AID489010, AID492950]; assay type: functional
T3 sequence (P9WHJ3 whole entry): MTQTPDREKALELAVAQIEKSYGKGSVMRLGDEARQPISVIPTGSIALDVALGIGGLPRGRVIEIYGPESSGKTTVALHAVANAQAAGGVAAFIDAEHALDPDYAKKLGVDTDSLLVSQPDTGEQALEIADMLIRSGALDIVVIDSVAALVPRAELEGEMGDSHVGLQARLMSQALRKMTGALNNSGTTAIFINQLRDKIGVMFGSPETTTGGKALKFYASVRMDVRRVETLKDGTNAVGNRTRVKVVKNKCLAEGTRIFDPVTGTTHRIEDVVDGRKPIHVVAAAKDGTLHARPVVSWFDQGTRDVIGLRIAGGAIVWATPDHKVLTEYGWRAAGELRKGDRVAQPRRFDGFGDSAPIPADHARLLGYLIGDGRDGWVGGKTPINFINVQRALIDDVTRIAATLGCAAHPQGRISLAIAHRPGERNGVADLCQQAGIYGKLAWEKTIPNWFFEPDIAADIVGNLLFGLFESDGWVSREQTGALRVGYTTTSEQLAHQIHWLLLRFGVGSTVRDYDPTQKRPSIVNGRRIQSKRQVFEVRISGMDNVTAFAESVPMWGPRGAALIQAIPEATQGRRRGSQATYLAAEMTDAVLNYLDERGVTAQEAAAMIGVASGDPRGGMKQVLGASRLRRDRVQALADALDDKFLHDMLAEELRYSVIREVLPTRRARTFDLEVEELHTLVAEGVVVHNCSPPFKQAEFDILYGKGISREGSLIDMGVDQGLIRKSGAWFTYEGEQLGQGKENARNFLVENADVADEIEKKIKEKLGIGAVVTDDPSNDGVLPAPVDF

Beta-galactosidase = Beta-galactosidase (Escherichia coli, UniProt Q8VNN2); assay: detection-enzyme interference by beta-gal modulators – biochemical, E. coli enzyme, set 3, artefact control for CCR6 antagonist project, dose response (AID 504712); assay type: functional
[6] = target: T4, Replicative DNA helicase DnaB (Mycobacterium tuberculosis, UniProt P9WMR3); assay: DnaB intein splicing inhibitors, dose response, biochemical, cell-free fluorescence (AID 449749); assay type: functional
T4 sequence (P9WMR3 whole entry): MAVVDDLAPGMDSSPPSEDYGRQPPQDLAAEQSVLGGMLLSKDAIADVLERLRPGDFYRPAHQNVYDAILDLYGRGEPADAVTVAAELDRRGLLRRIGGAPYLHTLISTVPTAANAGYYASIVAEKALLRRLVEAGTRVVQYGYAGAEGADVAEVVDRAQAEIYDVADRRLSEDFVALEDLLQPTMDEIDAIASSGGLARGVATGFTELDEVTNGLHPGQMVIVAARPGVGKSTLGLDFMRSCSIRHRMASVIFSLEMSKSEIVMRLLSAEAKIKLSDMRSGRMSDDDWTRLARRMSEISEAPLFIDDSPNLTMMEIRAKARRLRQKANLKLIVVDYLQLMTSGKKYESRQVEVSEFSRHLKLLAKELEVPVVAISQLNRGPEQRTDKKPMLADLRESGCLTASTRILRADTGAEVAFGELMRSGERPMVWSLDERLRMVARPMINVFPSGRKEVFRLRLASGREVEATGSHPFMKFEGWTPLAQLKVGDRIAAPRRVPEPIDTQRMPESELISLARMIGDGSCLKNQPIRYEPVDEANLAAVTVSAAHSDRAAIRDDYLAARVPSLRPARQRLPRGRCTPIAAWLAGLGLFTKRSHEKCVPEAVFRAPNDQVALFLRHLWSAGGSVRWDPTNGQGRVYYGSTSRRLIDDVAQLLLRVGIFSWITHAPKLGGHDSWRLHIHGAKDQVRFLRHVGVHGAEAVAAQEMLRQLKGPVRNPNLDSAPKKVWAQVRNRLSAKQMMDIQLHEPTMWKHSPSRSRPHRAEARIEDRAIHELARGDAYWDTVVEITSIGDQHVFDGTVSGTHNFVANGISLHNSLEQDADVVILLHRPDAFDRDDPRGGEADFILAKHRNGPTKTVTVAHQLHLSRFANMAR

[7] = target: Polyadenylate-binding protein 1 (Homo sapiens, UniProt P11940); assay: PABP inhibition in translation initiation, SAR follow-up (AID 435018); assay type: functional
[8] = target: Eukaryotic translation initiation factor 4H (Homo sapiens, UniProt Q15056); assay: inhibitors of translation initiation factor eIF4H – SAR follow-up (AID 435011); assay type: functional

T1 sequence (P65502 whole entry): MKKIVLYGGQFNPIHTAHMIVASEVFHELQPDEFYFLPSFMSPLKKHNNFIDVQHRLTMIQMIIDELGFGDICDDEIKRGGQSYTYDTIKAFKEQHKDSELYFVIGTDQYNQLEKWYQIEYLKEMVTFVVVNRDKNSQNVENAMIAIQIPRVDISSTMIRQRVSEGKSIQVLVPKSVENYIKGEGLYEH
Beta-galactosidase, sequence (Q8VNN2 whole entry): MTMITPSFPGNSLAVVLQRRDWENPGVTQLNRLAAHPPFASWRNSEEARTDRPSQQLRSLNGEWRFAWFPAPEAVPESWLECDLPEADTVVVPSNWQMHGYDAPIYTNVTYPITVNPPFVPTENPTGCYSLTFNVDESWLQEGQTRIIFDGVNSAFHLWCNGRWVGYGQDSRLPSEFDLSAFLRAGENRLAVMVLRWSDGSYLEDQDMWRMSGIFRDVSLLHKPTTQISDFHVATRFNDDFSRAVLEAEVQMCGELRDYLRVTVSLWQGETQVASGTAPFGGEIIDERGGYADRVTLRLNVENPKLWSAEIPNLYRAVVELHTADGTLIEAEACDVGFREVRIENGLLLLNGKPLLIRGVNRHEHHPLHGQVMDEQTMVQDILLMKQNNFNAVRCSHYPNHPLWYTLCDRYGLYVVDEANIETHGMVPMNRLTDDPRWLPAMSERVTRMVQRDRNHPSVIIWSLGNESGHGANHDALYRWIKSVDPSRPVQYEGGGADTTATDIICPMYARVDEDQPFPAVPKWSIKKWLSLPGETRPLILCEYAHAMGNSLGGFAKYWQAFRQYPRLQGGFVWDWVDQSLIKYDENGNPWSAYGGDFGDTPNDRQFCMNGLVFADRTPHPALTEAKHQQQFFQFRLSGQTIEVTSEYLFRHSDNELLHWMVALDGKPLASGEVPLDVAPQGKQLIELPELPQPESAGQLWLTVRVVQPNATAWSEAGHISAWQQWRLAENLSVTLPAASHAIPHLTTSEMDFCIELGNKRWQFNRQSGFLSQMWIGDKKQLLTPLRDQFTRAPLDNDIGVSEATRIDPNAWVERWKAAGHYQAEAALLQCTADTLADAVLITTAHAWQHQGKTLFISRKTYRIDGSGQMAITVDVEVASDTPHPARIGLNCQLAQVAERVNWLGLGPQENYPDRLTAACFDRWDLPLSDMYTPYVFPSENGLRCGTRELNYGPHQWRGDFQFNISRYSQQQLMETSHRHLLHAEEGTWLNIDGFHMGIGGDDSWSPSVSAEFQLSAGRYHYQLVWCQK
Caspase-7, sequence (P55210 24-198 limits assumed): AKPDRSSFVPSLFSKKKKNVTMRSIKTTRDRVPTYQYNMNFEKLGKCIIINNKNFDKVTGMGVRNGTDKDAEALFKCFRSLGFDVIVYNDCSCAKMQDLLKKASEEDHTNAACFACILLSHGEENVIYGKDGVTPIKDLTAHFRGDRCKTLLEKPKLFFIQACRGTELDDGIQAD
Caspase-7, sequence (P55210 207-303 limits assumed): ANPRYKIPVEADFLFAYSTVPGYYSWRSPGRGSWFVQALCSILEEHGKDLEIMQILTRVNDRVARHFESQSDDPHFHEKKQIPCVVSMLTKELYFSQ
Polyadenylate-binding protein 1, sequence (P11940 whole entry): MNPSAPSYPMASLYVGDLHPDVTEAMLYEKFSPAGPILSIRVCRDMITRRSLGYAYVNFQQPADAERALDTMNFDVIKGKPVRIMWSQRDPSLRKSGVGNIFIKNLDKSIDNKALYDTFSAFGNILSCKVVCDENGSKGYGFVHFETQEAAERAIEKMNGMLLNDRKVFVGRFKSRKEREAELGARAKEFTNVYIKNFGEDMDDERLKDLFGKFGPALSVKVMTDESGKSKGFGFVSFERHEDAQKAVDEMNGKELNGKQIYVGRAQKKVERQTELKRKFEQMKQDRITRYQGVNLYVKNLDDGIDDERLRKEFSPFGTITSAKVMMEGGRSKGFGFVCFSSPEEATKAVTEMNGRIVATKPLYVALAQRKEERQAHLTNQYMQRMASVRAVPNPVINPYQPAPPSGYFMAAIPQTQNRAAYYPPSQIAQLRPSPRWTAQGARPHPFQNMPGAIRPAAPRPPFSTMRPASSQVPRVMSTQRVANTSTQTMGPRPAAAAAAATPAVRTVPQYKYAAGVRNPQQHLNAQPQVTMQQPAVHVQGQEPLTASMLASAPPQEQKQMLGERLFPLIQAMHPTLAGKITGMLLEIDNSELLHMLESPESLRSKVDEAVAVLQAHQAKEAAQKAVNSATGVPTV

C=CCn1/c(=N/C(=O)c2cc(-c3cccs3)nc3ccccc23)sc2cc(S(N)(=O)=O)ccc21
active: IC50 [1] 11.5 µM | IC50 [2] 21.6 µM | EC50 [3] 30.1 µM | EC50 [4] 25.3 µM | EC50 (Caspase-3) 3.26 µM | EC50 (Caspase-7) > 3.16 µM | CC50 [5] 17.2 µM | AC50 (INS1) 19.3 µM

N#Cc1cc([N+](=O)[O-])c(-n2nnc3ccccc32)c([N+](=O)[O-])c1
active: EC50 (Protein RecA) 25.9 µM | AC50 [6] 7.31 µM
inactive: IC50 (Beta-galactosidase) > 66.6 µM

Cc1ccc(NC(=O)C2CCN(C(=O)c3cccs3)CC2)cc1
inactive: IC50 [7] > 100 µM | IC50 [8] > 100 µM
